# Data from ChEMBL document CHEMBL3808305, “Discovery of fused tricyclic core containing HCV NS5A inhibitors with pan-genotype activity” (Bioorg Med Chem Lett, 2016).
# Legend:
# Hepatitis C virus [1] = test: Antiviral activity against HCV genotype 2a assessed as decrease in HCV replicon RNA replication after 3 days by taqman assay based cell based replicon method; type: functional, organism-based, Hepacivirus hominis; conditions: 72 h
# Hepatitis C virus [2] = test: Antiviral activity against HCV genotype 1a assessed as decrease in HCV replicon RNA replication after 3 days by taqman assay based cell based replicon method; type: functional, organism-based, Hepacivirus hominis; conditions: subtype 1a, 72 h
# Hepatitis C virus [3] = test: Antiviral activity against HCV genotype 1b assessed as decrease in HCV replicon RNA replication after 3 days by taqman assay based cell based replicon method; type: functional, organism-based, Hepacivirus hominis; conditions: 72 h
# Hepatitis C virus [4] = test: Antiviral activity against HCV genotype 3a assessed as decrease in HCV replicon RNA replication after 3 days by taqman assay based cell based replicon method; type: functional, organism-based, Hepacivirus hominis; conditions: 72 h
# Hepatitis C virus [5] = test: Antiviral activity against HCV genotype 1a expressing NS5A Y93H mutant assessed as decrease in HCV replicon RNA replication after 3 days by taqman assay based cell based replicon method; type: functional, organism-based, Hepacivirus hominis; conditions: subtype 1a, 72 h
# Hepatitis C virus [6] = test: Antiviral activity against HCV genotype 2a assessed as decrease in HCV replicon RNA replication after 3 days in presence of 10% FBS by taqman assay based cell based replicon method; type: functional, organism-based, Hepacivirus hominis; conditions: 72 h
# Hepatitis C virus [7] = test: Antiviral activity against HCV genotype 1b assessed as decrease in HCV replicon RNA replication after 3 days in presence of 10% FBS by taqman assay based cell based replicon method; type: functional, organism-based, Hepacivirus hominis; conditions: 72 h
# Hepatitis C virus [8] = test: Antiviral activity against HCV genotype 1a assessed as decrease in HCV replicon RNA replication after 3 days in presence of 10% FBS by taqman assay based cell based replicon method; type: functional, organism-based, Hepacivirus hominis; conditions: subtype 1a, 72 h
# [9] = AUC in Sprague-Dawley rat at 10 mg/kg, po; type: ADME, organism-based; conditions: in vivo
# [10] = Oral bioavailability in Sprague-Dawley rat at 10 mg/kg; type: ADME, organism-based; conditions: in vivo
# [11] = Clearance in Sprague-Dawley rat at 10 mg/kg, po or 2 mg/kg, iv; type: ADME, organism-based; conditions: in vivo
# [12] = Half life in Sprague-Dawley rat at 10 mg/kg, po or 2 mg/kg, iv; type: ADME, organism-based; conditions: in vivo
# Hepatitis C virus [13] = test: Antiviral activity against HCV genotype 3a assessed as decrease in HCV replicon RNA replication after 3 days in presence of 10% FBS by taqman assay based cell based replicon method; type: functional, organism-based, Hepacivirus hominis; conditions: 72 h
# Hepatitis C virus [14] = test: Antiviral activity against HCV genotype 1a expressing NS5A Y93H mutant assessed as decrease in HCV replicon RNA replication after 3 days in presence of 10% FBS by taqman assay based cell based replicon method; type: functional, organism-based, Hepacivirus hominis; conditions: subtype 1a, 72 h
SMILES,EC50 (Hepatitis C virus [1]) [nM],EC50 (Hepatitis C virus [2]) [nM],EC50 (Hepatitis C virus [3]) [nM],EC50 (Hepatitis C virus [4]) [nM],EC50 (Hepatitis C virus [5]) [nM],other results
COC(=O)N[C@H](C(=O)N1CCC[C@H]1c1ncc(-c2ccc3c(c2)Oc2ccc(-c4cnc([C@@H]5CCCN5C(=O)[C@@H](NC(=O)OC)C(C)C)[nH]4)cc2C3C)[nH]1)C(C)C (stereo partly specified),0.004,0.05,0.009,0.08,,
C/C=C1/c2ccc(-c3cnc([C@@H]4CCCN4C(=O)[C@@H](NC(=O)OC)C(C)C)[nH]3)cc2Oc2ccc(-c3cnc([C@@H]4CCCN4C(=O)[C@@H](NC(=O)OC)C(C)C)[nH]3)cc21,0.03,0.06,0.007,0.4,9,
COC(=O)N[C@H](C(=O)N1CCC[C@H]1c1ncc(-c2ccc3c(C#N)c4cc(-c5cnc([C@@H]6CCCN6C(=O)[C@@H](NC(=O)OC)C(C)C)[nH]5)ccc4nc3c2)[nH]1)C(C)C,,,,,,EC50 (Hepatitis C virus [6]): 1 nM; EC50 (Hepatitis C virus [7]): 0.01 nM; EC50 (Hepatitis C virus [8]): 0.3 nM
COC(=O)N[C@H](C(=O)N1CCC[C@H]1c1ncc(-c2ccc3cc4cc(-c5cnc([C@@H]6CCCN6C(=O)[C@@H](NC(=O)OC)C(C)C)[nH]5)ccc4cc3c2)[nH]1)C(C)C,0.005,0.006,0.001,0.06,87,AUC [9]: 13 µM·h; bioavailability [10]: 46%; clearance [11]: 7.7 mL/min/kg; half-life [12]: 3 h
COC(=O)N[C@H](C(=O)N1CCC[C@H]1c1ncc(-c2ccc3c(c2)Oc2ccc(-c4cnc([C@@H]5CCCN5C(=O)[C@@H](NC(=O)OC)C(C)C)[nH]4)cc2C3C2CC2)[nH]1)C(C)C (stereo partly specified),,,,,,EC50 (Hepatitis C virus [6]): 0.004 nM; EC50 (Hepatitis C virus [7]): 0.004 nM; EC50 (Hepatitis C virus [13]): 0.2 nM; EC50 (Hepatitis C virus [8]): 0.03 nM; EC50 (Hepatitis C virus [14]): 46 nM
COC(=O)N[C@H](C(=O)N1CCC[C@H]1c1ncc(-c2ccc3c(=O)c4cc(-c5cnc([C@@H]6CCCN6C(=O)[C@@H](NC(=O)OC)C(C)C)[nH]5)ccc4oc3c2)[nH]1)C(C)C,0.1,0.01,0.002,,1730,
COC(=O)N[C@H](C(=O)N1CCC[C@H]1c1ncc(-c2ccc3c(Cl)c4cc(-c5cnc([C@@H]6CCCN6C(=O)[C@@H](NC(=O)OC)C(C)C)[nH]5)ccc4cc3c2)[nH]1)C(C)C,0.01,0.05,0.003,0.6,66,
CCC1c2ccc(-c3cnc([C@@H]4CCCN4C(=O)[C@@H](NC(=O)OC)C(C)C)[nH]3)cc2Oc2ccc(-c3cnc([C@@H]4CCCN4C(=O)[C@@H](NC(=O)OC)C(C)C)[nH]3)cc21 (stereo partly specified),0.005,0.02,0.004,0.07,24,
COC(=O)N[C@H](C(=O)N1CCC[C@H]1c1ncc(-c2ccc3nc4cc(-c5cnc([C@@H]6CCCN6C(=O)[C@@H](NC(=O)OC)C(C)C)[nH]5)ccc4cc3c2)[nH]1)C(C)C,0.04,0.05,0.01,,1050,
COC(=O)N[C@H](C(=O)N1CCC[C@H]1c1ncc(-c2ccc3c(c2)NC(=O)c2cc(-c4cnc([C@@H]5CCCN5C(=O)[C@@H](NC(=O)OC)C(C)C)[nH]4)ccc2O3)[nH]1)C(C)C,,,,,,EC50 (Hepatitis C virus [6]): > 1000 nM; EC50 (Hepatitis C virus [7]): 40 nM; EC50 (Hepatitis C virus [8]): 950 nM
COC(=O)N[C@H](C(=O)N1CCC[C@H]1c1ncc(-c2ccc3c(C)c4cc(-c5cnc([C@@H]6CCCN6C(=O)[C@@H](NC(=O)OC)C(C)C)[nH]5)ccc4cc3c2)[nH]1)C(C)C,0.005,0.02,0.005,0.5,42,
COC(=O)N[C@H](C(=O)N1CCC[C@H]1c1ncc(-c2ccc3c(c2)C(=O)c2ccc(-c4cnc([C@@H]5CCCN5C(=O)[C@@H](NC(=O)OC)C(C)C)[nH]4)cc2C3=O)[nH]1)C(C)C,0.7,0.09,0.007,,35,
